Patent publication US5424456A, “N-arylalkylderivatives of 2-aminomethyl-2,3-dihydro-1,4-benzodioxine and the process of preparation thereof” (Vyzkumny Ustav Pro Farmacii A Biochemii s.p., priority 1991, dated 1995)

Assays:
calcium channel = biological target: T1, calcium channel (Rattus norvegicus, UniProt P22002); experiment: Calcium channel blocking activity, K+ depolarization-induced contraction of helically cut rat aortic strip; settings: Krebs-Henselheit solution, 37° C., cumulative doses, read-out: IC50 (50% decrease of contraction of the aortic strip)
T1 construct: helically cut rat aortic strip; from tissue; host or cells: rat aorta (helically cut strip)
Procedure: The calcium channel blocking activity of the compounds was tested using a helically cut rat aortic strip in Krebs-Henselheit solution at 37° C., bubbled with a mixture of 95% O2 and 5% CO2. The isometrically registered contractions were induced by K^(+). depolarization. The test compounds were applied in a cumulative doses and the vasodilating activity thereof was expressed in calculated concentration of the test compound, causing 50% decrease of contraction of the aortic strip (IC50).

blood pressure = experiment: Hypotensive activity, pentobarbital anaesthesized dogs; type: in vivo, dog; settings: i.v.
Description: b) The blood pressure of pentobarbital anaesthesized dogs was registered invasively in arteria femoralis. The average decrease in systolic (SBP) arid diastolic (DBP) blood pressure expressed in per cents of the starting blood pressure level after intravenous and oral administration is shown in Tables 5 and 6.

[1] = system: rat peripheral venous thrombosis; experiment: Antithrombotic activity, rat peripheral venous thrombosis in closed abdominal part of vena cava; type: in vivo; settings: po, rats, orally, read-out: statistically significant effective dose (mass of thrombi)
Procedure: The antithrombotic activity of the test compounds was established using the model of rat peripheral venous thrombosis in a closed abdominal part of vena cava. The thrombus was induced by intravenous administration of hypotonic solution of sodium chloride. The thrombus was freed 10 minutes after induction and weighted. The mass of thrombi in control animals was compared to the mass of thrombi of animals administered by the test compound. The statistically significant effective dose for compound VUFB 17951 was 0.5 mg/kg intravenously and 5 mg/kg orally and for the compound VUFB 17959 0.25 mg/kg and 1.0 mg/kg, respectively. The corresponding dose of a standard (Cilostazol, generic name, Merck index, 11th Edition, 2277) was 25 mg/kg orally.

[2] = 4.5 mg/kg, value 1 of 5 (heads 5/30/60/180 min; probably 1 min)
[3] = 4.5 mg/kg, value 2 of 5 (heads 5/30/60/180 min; probably 5 min)
[4] = 4.5 mg/kg, value 3 of 5 (heads 5/30/60/180 min; probably 30 min)
[5] = 4.5 mg/kg, value 4 of 5 (heads 5/30/60/180 min; probably 60 min)
[6] = 4.5 mg/kg, value 5 of 5 (heads 5/30/60/180 min; probably 180 min)
[7] = 4.6 mg/kg, value 1 of 5 (heads 5/30/60/180 min; probably 1 min)
[8] = 4.6 mg/kg, value 2 of 5 (heads 5/30/60/180 min; probably 5 min)
[9] = 4.6 mg/kg, value 3 of 5 (heads 5/30/60/180 min; probably 30 min)
[10] = 4.6 mg/kg, value 4 of 5 (heads 5/30/60/180 min; probably 60 min)
[11] = 4.6 mg/kg, value 5 of 5 (heads 5/30/60/180 min; probably 180 min)

T1 sequence (P22002 whole entry): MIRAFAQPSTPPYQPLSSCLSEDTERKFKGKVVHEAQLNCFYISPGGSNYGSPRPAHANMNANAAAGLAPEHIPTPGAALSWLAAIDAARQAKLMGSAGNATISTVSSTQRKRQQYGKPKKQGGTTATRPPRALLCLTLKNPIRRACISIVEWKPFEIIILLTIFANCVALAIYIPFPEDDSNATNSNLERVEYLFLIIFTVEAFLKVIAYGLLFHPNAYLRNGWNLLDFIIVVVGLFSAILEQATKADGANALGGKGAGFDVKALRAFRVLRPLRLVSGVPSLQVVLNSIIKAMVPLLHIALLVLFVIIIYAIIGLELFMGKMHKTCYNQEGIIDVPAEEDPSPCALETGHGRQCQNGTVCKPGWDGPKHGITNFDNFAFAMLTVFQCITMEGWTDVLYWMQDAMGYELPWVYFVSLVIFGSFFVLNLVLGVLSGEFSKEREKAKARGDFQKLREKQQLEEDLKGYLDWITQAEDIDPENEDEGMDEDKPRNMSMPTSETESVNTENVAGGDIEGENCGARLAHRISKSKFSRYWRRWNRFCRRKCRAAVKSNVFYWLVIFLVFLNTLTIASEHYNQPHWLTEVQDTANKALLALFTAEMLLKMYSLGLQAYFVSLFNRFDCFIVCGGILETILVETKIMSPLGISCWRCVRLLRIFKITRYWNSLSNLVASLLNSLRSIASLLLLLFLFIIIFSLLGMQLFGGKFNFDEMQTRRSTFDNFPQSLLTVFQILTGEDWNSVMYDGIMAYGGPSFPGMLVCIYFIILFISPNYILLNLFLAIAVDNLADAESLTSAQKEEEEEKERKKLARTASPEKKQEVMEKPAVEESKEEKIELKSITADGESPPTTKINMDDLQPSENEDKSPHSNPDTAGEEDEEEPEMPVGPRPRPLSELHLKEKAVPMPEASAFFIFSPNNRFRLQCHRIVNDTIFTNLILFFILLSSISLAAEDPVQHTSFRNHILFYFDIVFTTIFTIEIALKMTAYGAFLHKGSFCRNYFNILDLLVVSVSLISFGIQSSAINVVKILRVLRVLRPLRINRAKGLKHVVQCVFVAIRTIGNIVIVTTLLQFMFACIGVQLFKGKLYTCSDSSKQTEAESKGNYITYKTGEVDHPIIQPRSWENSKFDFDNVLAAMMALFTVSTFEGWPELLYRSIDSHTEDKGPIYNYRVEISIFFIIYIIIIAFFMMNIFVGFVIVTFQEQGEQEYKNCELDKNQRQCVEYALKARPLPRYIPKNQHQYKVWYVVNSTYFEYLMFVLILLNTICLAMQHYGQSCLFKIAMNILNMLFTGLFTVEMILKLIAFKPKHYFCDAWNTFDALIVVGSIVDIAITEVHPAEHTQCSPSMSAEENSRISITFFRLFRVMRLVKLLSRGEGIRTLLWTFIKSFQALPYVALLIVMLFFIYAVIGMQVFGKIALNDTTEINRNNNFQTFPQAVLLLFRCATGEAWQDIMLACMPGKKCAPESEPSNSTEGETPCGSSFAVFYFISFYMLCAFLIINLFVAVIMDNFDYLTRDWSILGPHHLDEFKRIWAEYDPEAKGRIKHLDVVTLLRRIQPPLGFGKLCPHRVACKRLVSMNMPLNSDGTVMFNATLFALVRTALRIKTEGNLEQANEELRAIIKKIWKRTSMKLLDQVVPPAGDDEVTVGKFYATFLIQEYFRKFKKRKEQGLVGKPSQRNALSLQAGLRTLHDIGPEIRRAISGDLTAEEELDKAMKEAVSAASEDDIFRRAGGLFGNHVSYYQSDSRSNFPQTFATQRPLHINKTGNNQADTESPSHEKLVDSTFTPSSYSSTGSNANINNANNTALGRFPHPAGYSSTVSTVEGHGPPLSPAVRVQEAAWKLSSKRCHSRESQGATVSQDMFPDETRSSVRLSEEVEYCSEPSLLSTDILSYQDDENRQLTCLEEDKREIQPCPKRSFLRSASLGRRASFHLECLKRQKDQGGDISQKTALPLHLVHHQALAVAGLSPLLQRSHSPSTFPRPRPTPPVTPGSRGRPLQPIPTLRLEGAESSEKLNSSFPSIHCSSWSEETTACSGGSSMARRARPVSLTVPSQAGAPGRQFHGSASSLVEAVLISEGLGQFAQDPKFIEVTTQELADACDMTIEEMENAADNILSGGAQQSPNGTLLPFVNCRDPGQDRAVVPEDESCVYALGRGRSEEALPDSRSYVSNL
T1 sequence (P54290 25-1091 partner): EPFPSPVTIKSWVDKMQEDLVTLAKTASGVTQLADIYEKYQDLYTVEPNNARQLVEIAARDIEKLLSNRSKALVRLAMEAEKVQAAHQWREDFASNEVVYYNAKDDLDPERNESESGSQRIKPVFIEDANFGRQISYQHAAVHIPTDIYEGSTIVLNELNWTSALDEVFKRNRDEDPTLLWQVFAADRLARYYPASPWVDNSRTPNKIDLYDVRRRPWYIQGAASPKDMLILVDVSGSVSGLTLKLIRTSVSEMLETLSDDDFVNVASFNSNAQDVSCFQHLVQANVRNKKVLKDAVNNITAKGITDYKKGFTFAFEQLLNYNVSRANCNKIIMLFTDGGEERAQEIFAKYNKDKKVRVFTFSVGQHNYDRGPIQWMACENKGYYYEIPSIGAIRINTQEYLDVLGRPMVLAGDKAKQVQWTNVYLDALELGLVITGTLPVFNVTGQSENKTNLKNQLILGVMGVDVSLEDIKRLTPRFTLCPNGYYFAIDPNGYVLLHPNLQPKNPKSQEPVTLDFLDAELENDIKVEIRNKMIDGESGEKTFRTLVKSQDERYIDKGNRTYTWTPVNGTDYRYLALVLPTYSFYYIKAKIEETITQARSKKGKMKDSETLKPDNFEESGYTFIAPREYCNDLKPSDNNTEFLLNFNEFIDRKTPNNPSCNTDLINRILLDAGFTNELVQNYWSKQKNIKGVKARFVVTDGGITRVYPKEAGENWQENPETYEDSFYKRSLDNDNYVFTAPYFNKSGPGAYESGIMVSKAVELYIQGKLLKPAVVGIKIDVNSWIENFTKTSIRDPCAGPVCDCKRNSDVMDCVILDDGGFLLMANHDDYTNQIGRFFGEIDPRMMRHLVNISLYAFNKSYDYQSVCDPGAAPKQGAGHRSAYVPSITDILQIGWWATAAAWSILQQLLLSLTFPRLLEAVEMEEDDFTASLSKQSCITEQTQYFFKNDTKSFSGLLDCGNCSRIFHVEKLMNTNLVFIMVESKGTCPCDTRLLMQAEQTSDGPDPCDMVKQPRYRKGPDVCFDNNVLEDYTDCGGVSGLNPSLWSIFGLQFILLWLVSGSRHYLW

SMILES	IC50 (calcium channel) [µM]	decrease in diastolic blood pressure (DBP) (blood pressure; [2]) [per cents]	decrease in systolic blood pressure (SBP) (blood pressure; [2]) [per cents]	decrease in diastolic blood pressure (DBP) (blood pressure; [3]) [per cents]	decrease in systolic blood pressure (SBP) (blood pressure; [3]) [per cents]	decrease in diastolic blood pressure (DBP) (blood pressure; [4]) [per cents]	decrease in systolic blood pressure (SBP) (blood pressure; [4]) [per cents]	decrease in diastolic blood pressure (DBP) (blood pressure; [5]) [per cents]	decrease in systolic blood pressure (SBP) (blood pressure; [5]) [per cents]	decrease in diastolic blood pressure (DBP) (blood pressure; [6]) [per cents]	decrease in systolic blood pressure (SBP) (blood pressure; [6]) [per cents]	decrease in diastolic blood pressure (DBP) (blood pressure; [7]) [per cents]	decrease in systolic blood pressure (SBP) (blood pressure; [7]) [per cents]	decrease in diastolic blood pressure (DBP) (blood pressure; [8]) [per cents]	decrease in systolic blood pressure (SBP) (blood pressure; [8]) [per cents]	decrease in diastolic blood pressure (DBP) (blood pressure; [9]) [per cents]	decrease in systolic blood pressure (SBP) (blood pressure; [9]) [per cents]	decrease in diastolic blood pressure (DBP) (blood pressure; [10]) [per cents]	decrease in systolic blood pressure (SBP) (blood pressure; [10]) [per cents]	decrease in diastolic blood pressure (DBP) (blood pressure; [11]) [per cents]	other results
Cc1ccccc1C(C#N)(CCCNCC1COc2ccccc2O1)C(C)C (single isomer, unassigned) [VUFB 18018, 5-[(-)-2,3-dihydro-1,4-benzodioxin-2-ylmethylamino]-2-isopropyl-2- -(2-methylphenyl) valeronitrile]	15	-54	-40	-46	-42	-29	-30	-24	-22	-22	-21										
Cc1ccccc1C(C#N)(CCCNCC1COc2ccccc2O1)C(C)C (single isomer, unassigned) [VUFB 18007, 5-[(+)-2,3-dihydro-1,4-benzodioxin-2-ylmethylamino]-2-isopropyl-2- -(2-methylphenyl) valeronitrite]	15	-66	-47	-41	-33	-25	-27	-19	-22	-12	-17										
COc1ccc(C(C#N)(CCCNCC2COc3ccccc3O2)C(C)C)cc1OC (single isomer, unassigned) [VUFB 18020, 5-[(-)-2,3-dihydro-1,4-benzodioxin-2-ylmethylamino]-2-(3,4-dimeth-oxyphenyl)-2-isopropyl valeronitrile]	25											-63	-46	-63	-58	-45	-43	-37	-35	-34	decrease in systolic blood pressure (SBP) (blood pressure; [11]): -40 per cents
O=C1CCc2cc(OCCCCc3nnnn3C3CCCCC3)ccc2N1 [Cilostazol, reference compound]																					minimal effective dose [1]: 25 mg/kg
COc1ccc(C(C#N)(CCCNCC2COc3ccccc3O2)C(C)C)cc1OC (single isomer, unassigned) [VUFB 18019, 5-[(+)-2,3-dihydro-1,4-benzodioxin-2-ylmethylamino]-2-(3,4-dimethoxyphenyl)-2-isopropyl valeronitrile]	16											-54	-17	-32	-32	-8	-26	-14	-16	-8	decrease in systolic blood pressure (SBP) (blood pressure; [11]): -14 per cents
